Measurements taken from US20050020482A1, “Methods for modulating gap junctions” (priority 2001, published 2005).

Columns and labels:
[1] = test system: IMR32 neuroblastoma cells; assay: Growth of IMR32 neuroblastoma cells in vitro (population size, Hoechst fluorometry); format: cell-based; parameters: population size, percent of matching controls: concentration or dose not given beside the values; conditions: for population size, percent of matching controls: 24 replica
Description: Legend: IMR32 neuroblastoma cells were seeded in 96 well plates at a density of 1000 cells per well. Treatments were as follows: Control cells are untreated and growing in a MEM-based proliferation medium. […] A2+RA treatment consisted of medium A2 supplemented with all trans retinoic acid (RA) 1 uM on day 2; A1+RA consist of RA supplementation 1 uM in the absence of the cAMP analog. The population size (24 replica per treatment) was determined by a procedure using Hoechst as a reagent and cytofluor (BioRad) fluorometer for measurement. The results are expressed as a percent of matching controls.

[2] = test system: gap junction function in IMR32; format: cell-based
Description: The classical scrape loading test was used to monitor the function of gap junction channels. Briefly, a cut is performed with a fine needle in sub-confluent cell cultures (refer reverse phases micrograph 5B). The culture is then covered with a film of fluorescent dye Lucifer yellow which is not cell permeant. The dye however penetrates the wounded cells along the scrape. From these loaded cells the dye can only be transferred to neighbor cells through the gap junction channels. The number of cell rows that receive the dye after a given time (3 min) provides an estimation of the gap junction function. Primary antibodies specific to PKC isoforms alpha beta I and beta II were introduced individually or in combination (as shown) by endocytosis using a kit from Molecular Probe following the supplier instructions. Controls for the introduction of the specific antibodies were performed by fixing and permeabilizing the cells then staining them with a secondary antibody conjugated to Texas red (Johnson labs).
All documents referred to are incorporated herein by reference.

| Structure (SMILES) | population size, percent of matching controls ([1]; day 1) [%] | population size, percent of matching controls ([1]; day 2) [%] | population size, percent of matching controls ([1]; day 3) [%] | population size, percent of matching controls ([1]; day 4) [%] | population size, percent of matching controls ([1]; day 5) [%] | population size, percent of matching controls ([1]; day 6) [%] | effect on growth (in words) ([1]; legend of Table 1) | cell death [2] | gap junction function [2] |
| --- | --- | --- | --- | --- | --- | --- | --- | --- | --- |
| CC1=C(/C=C/C(C)=C/C=C/C(C)=C/C(=O)O)C(C)(C)CCC1 [all trans retinoic acid (RA), all trans retinoic acid] | 84 | 87 | 90 | 63 | 70 | 68 | not very efficient in affecting growth |  |  |
| Oc1ccc(-c2nc(-c3ccncc3)c(-c3ccc(F)cc3)[nH]2)cc1 [SB202190] |  |  |  |  |  |  |  | died of apoptosis | Gap junction function resuming |
